{
  "source": "patent US20120328602A1",
  "about": "“COMPOSITIONS AND METHODS FOR TREATING CONDITIONS ASSOCIATED WITH CERAMIDE BIOSYNTHESIS” (priority 2007, published 2012)",
  "key": {"IL-6": {"tested_on": "IL-6", "test": "IL-6 in dorsal horn of lumbar spinal cord by ELISA", "format": "in vivo, mice", "settings": "morphine group vs vehicle group, n=10"}, "ceramide": {"tested_on": "ceramide", "test": "ceramide in spinal cord dorsal horn by immunohistochemistry and ESI-MS/MS (Example 1)", "format": "in vivo, mice"}, "[1]": {"tested_on": "serine palmitoyl transferase (SPT)", "test": "serine palmitoyl transferase (SPT) activity", "format": "in vivo, mice", "settings": "repeated morphine, tolerant mice vs vehicle", "experimental": "SPT activity was determined by measuring the incorporation of [^3H] serine into 3-ketosphinganine following the method previously described (Williams et al., 1984). The results were normalized by the samples' protein concentration."}, "neutral SMase": {"tested_on": "neutral SMase", "test": "sphingomyelinase activity in spinal cord tissues, neutral isoform (Amplex Red kit)", "format": "in vivo, mice", "settings": "repeated morphine vs vehicle (not shown)", "experimental": "Sphingomyelinase activity was measure using Amplex® Red Sphingomyelinase Assay Kit (Molecular Probes, Eugene, Oreg.) following manufacturer's instructions. First, spinal cord tissues were homogenized in buffers for each specific assay as previously described (Dobrowsky and Kolesnick, 2001). For the acid isoforms, Na acetate (100 mM and pH 5.0) lysis buffer was used. 2 mM EDTA was added to the lysis buffer for detection of the insoluble isoform. For neutral isoform detection, the tissues were homogenized in Hepes (20 mM, pH 7.4) lysis buffer. The kinetics for sphingomyelinase activity was measured in a fluorescence microplate reader for two hours followed by normalization per protein concentration of the sample. Hydrogen peroxide and sphingomyelinase were used as positive controls."}, "peroxynitrite": {"tested_on": "peroxynitrite", "test": "3-nitrotyrosine (NT) staining in dorsal horn as marker of peroxynitrite", "format": "in vivo, mice", "source_text": ". Detection of NT in this setting can therefore be reliably used as marker of peroxynitrite. […]; FIG. 8c), evidence of the contribution of ceramide in the production of spinal peroxynitrite."}, "TNF-α": {"tested_on": "TNF-α", "test": "TNF-α in dorsal horn of lumbar spinal cord by ELISA", "format": "in vivo, mice", "settings": "morphine group vs vehicle group, n=10"}, "IL-1β": {"tested_on": "IL-1β", "test": "IL-1β in dorsal horn of lumbar spinal cord by ELISA", "format": "in vivo, mice", "settings": "morphine group vs vehicle group, n=10"}, "[2]": {"tested_on": "manganese superoxide dismutase (MnSOD)", "test": "measurement of MnSOD enzymatic activity, spectrophotometric", "format": "in vivo, mice", "settings": "FB1 0.25-1 mg/kg/d with morphine, n=5", "experimental": "Dorsal halves of the spinal cord lumbar region enlargement (L4-L6) were homogenized with 10 mM phosphate buffered saline (pH 7.4) in a Polytron homogenizer and then sonicated on ice for one minute (twenty seconds, three times). The sonicated samples were subsequently centrifuged at 1,100×g for ten minutes. SOD activity was measured in the supernatants as described previously (Wang et al., 2004). A competitive inhibition assay was performed which used xanthine-xanthine oxidase-generated superoxide to reduce nitroblue tetrazolium (NBT) to blue tetrazolium salt. The reaction was performed in sodium carbonate buffer (50 mM, pH 10.1) containing EDTA (0.1 mM), nitroblue tetrazolium (25 μM), xanthine and xanthine-oxidase (0.1 mM and 2 nM respectively; Boehringer, Germany). The rate of NBT reduction was monitored spectrophotometrically (Perkin Elmer Lambda 5 Spectrophotometer, Milan, Italy) at 560 nm. The amount of protein required to inhibit the rate of NTB reduction by 50% was defined as one unit of enzyme activity. Cu/Zn-SOD activity was inhibited by performing the assay in the presence of 2 mM NaCN after pre-incubation for thirty minutes. Enzymatic activity was expressed in units per milligram of protein (Wang et al., 2004)."}, "mice": {"tested_on": "mice", "test": "Rotarod motor function test", "format": "in vivo", "settings": "myriocin 0.4 mg/kg, FB1 1 mg/kg, D609 40 mg/kg; fifteen, thirty, and sixty minutes after administration; n=4; vs vehicle", "experimental": "Mice were trained before experimentation for their ability to remain for one-hundred twenty seconds on a revolving Rotarod apparatus (accelerating units increase from 3.5 to 35 rpm in five minutes). Mice (n=4 per group) were injected with an i.p. injection of the highest dose of FB1 (1 mg/kg), myriocin (0.4 mg/kg), D609 (40 mg/kg) used to block antinociceptive tolerance or its vehicle. Mice (n=4 per group) were tested and examined for motor […] on the Rotarod at fifteen, thirty, and sixty minutes after drug administration as described in the method section. The latency time to fall off the Rotarod was determined. A cut-off time of one-hundred twenty seconds was used."}},
  "note": "“Also recorded” adds a separate entry of the source.",
  "data": [
    {"smiles": "CN1CC[C@]23c4c5ccc(O)c4O[C@H]2[C@@H](O)C=C[C@H]3[C@H]1C5", "note": "[morphine]", "values": [
      {"measurement": "IL-6 in dorsal horn tissues", "setting": "IL-6", "result": "increased immunoreactivity; also recorded: significant increase"},
      {"measurement": "ceramide in dorsal horn, immunohistochemistry with anti-ceramide antibody", "setting": "ceramide; repeated administration of morphine over four days", "result": "appearance of ceramide in the superficial layers of the dorsal horn"},
      {"measurement": "predominant ceramide species increased in dorsal horn tissues, ESI-MS/MS", "setting": "ceramide; repeated morphine administration, n=3", "result": "18:0, 20:0, and 22:0 ceramide"},
      {"measurement": "enzymatic activity of serine palmytoyl transferase (SPT)", "setting": "[1]", "result": "increased enzymatic activity"},
      {"measurement": "activity of the neutral SMase", "setting": "neutral SMase", "result": "not changed compared to vehicle"},
      {"measurement": "NT staining in dorsal horn", "setting": "peroxynitrite; morphine tolerant mice", "result": "appearance of NT staining in tolerant mice"},
      {"measurement": "TNF-α in dorsal horn tissues", "setting": "TNF-α", "result": "increased immunoreactivity; also recorded: significant increase"},
      {"measurement": "IL-1β in dorsal horn tissues", "setting": "IL-1β", "result": "increased immunoreactivity; also recorded: significant increase"}
    ]},
    {"smiles": "CCCC[C@@H](C)[C@@H](OC(=O)C[C@@H](CC(=O)O)C(=O)O)[C@H](C[C@@H](C)C[C@H](O)CCCC[C@@H](O)C[C@H](O)[C@H](C)N)OC(=O)C[C@@H](CC(=O)O)C(=O)O", "note": "[FB1, Fumonisin B1]", "values": [
      {"measurement": "increase in ceramide by immunohistochemical analysis and ESI-MS/MS", "setting": "ceramide; co-administration of morphine with FB1 1 mg/kg", "result": "prevented"},
      {"measurement": "loss of MnSOD enzymatic activity", "setting": "[2]", "result": "restored in a dose-dependent manner"},
      {"measurement": "appearance of NT staining", "setting": "peroxynitrite; co-administration of morphine with FB1 1 mg/kg/d", "result": "blocked"},
      {"measurement": "Rotarod motor function deficits", "setting": "mice", "result": "did not show signs of Rotarod deficits"}
    ]}
  ]
}
